Results as given in article PMC5187537, “Antioxidant Activity of Oat Proteins Derived Peptides in Stressed Hepatic HepG2 Cells” (Antioxidants, 2016).
Where “and” joins values, the source holds several entries; their conditions need not be identical. Equal values may be shown once. Read-outs that look alike come from different tables or passages of the source.

Legend:
[1] = cited from earlier work
Procedure: Recent studies have, however, shown that, in addition to fibers and polyphenols, hydrolyzed proteins and peptides also contribute to the health promoting effect of cereals. […] Protein hydrolysates from oats, wheat, and rice have all shown antioxidant activities against common reactive oxygen species (ROS) in various systems. The peroxyl radical scavenging activity of oat proteins in the ... || Peroxyl radical (ROO^•) scavenging activities of P1–P7 were evaluated using the ORAC assay. […] ROO^• scavenging activities can be affected by sequences, molecular weights and the presence of amino acids that can form stable radical intermediates after donation of electrons or protons. The highest activities of P2 and P5 can be explained ...

catalase (CAT) = assay: Catalase activity of lysates of AAPH-stressed cells; format: cell-based, Human
Procedure: (§1) Cells were seeded at 1 × 10^6 cells/plate in 60 mm tissue culture plates and allowed to grow for 24 h. In each plate, cells were washed twice with 4 mL of PBS (pH 7.2), and treated with 4 mL peptide samples (P1, P2, P6, P7) dissolved in culture media at 50 or 100 µM for 24 h. After removal of peptide solutions, cells were washed twice with 4 mL of PBS/plate and treated with 4 mL of […] dissolved in culture media and allowed to incubate for 24 h. Cells in each culture plate were harvested by incubation (5 min) with 0.5 mL of 0.25% trypsin, addition of 1 mL of culture media and centrifugation at 1000× g for 5 min. Cell pellets were washed with ice cold PBS (500 µL each) until no pink color was observed, re-suspended in ice cold PBS (300 µL) for the superoxide dismutase (SOD) assay, 500 µL for glutathione peroxidase (GPx) and catalase (CAT) assays. For total glutathione assay, 300 µL of 5% ice cold sulfosalicylic acid bubbled with 100% nitrogen was used for cell lysis. Cells were lysed by sonication on ice for 1 min using a probe-type sonicator (Vibra-Cell, Sonics and Materials Inc., Newtown, CT, USA) pulsing at 15 s on and 10 s off cycles. Following centrifugation of cell lysate at 13,000× g (4 °C), pellets containing cell debris were discarded, while supernatants were used for determination of glutathione content. Protein contents were determined using a modified Lowry assay. To measure the catalase activity, 1790 µL potassium phosphate buffer (50 mM, pH 7.0) was mixed with 200 µL cell lysate in a UV cuvette. Ten µL of H2O2 (30%) was added, and removal of H2O2 by catalase was followed at 240 nm using a Cary 50 Bio UV-Vis spectrophotometer with 18-cell changer (Varian Inc., Mississauga, ON, Canada). The activity was expressed as a percentage of control.

[2] = test system: glutathione peroxidase (GPx); assay: Glutathione peroxidase activity of lysates of AAPH-stressed cells; format: cell-based, Human; conditions: for Effect on GPx activity of AAPH-stressed cells: then AAPH 24 h
Procedure: as §1, with “assay.” for “assay. To measure the catalase activity, 1790 µL potassium phosphate buffer (50 mM, pH 7.0) was mixed with 200 µL cell lysate in a UV cuvette. Ten µL of H2O2 (30%) was added, and removal of H2O2 by catalase was followed at 240 nm using a Cary 50 Bio UV-Vis spectrophotometer with 18-cell changer (Varian Inc., Mississauga, ON, Canada). The activity was expressed as a percentage of control.”
The activity of GPx was determined as previously described in a 96-well plate. Briefly, in each well, 187.5 µL of potassium phosphate buffer was mixed with 12.5 µL NADPH (4 mM) solution and 25 µL of cell lysates or buffer (blank), and incubated at 30 °C for 5 min. Then, 100 µL of 0.15% cumene hydroperoxide was added in each well to begin the reaction. The rate of disappearance of NADPH was followed at 340 nm for 5 min. The activity was expressed as Units of GPx activity/mg protein.

[3] = test system: glutathione (GSH) of HepG2 cells; assay: Cellular glutathione, enzymatic recycling method; format: cell-based, Human; conditions: treatment with AAPH alone, 24 h
Procedure: as §1, with “assay.” for “assay. To measure the catalase activity, 1790 µL potassium phosphate buffer (50 mM, pH 7.0) was mixed with 200 µL cell lysate in a UV cuvette. Ten µL of H2O2 (30%) was added, and removal of H2O2 by catalase was followed at 240 nm using a Cary 50 Bio UV-Vis spectrophotometer with 18-cell changer (Varian Inc., Mississauga, ON, Canada). The activity was expressed as a percentage of control.”
The assay was based on the enzymatic recycling method adjusted for 96-well plates. All solutions were prepared in sodium phosphate buffer (125 mM, pH 7.5) that contained 6.3 mM EDTA (ethylenediaminetetraacetic acid). In summary, 60 µL of 0.35 mM NADPH and 10 µL of 6 mM DTNB were added to wells, this was followed by the addition of 20 µL cell lysate or glutathione (GSH) standard. To initiate the reaction, 10 µL of glutathione reductase (5 IU/mL) was added and the rate of reaction between GSH from cell lysate and DTNB was measured at 412 nm. Total glutathione of cell lysates was calculated based on a standard curve of glutathione.

[4] = Oxygen radical absorbance capacity (ORAC) assay; conditions: fluorescein 0.08 µM, AAPH 150 mM, 37 °C, 50 min, potassium phosphate buffer pH 7.4 75 mM, peptides 100 and 200 µM; triplicate, mean ± STDEV
Procedure: The ORAC assay was performed as previously described. The decay of fluorescein (0.08 µM) by AAPH (150 mM) at 37 °C was recorded at 1 min intervals over 50 min using a BioTek™ FL × 800™ fluorescent microplate reader (Fisher Scientific, Nepean, ON, Canada) with fluorescence filters (excitation 485/20 nm, emission 528/20 nm). Potassium phosphate buffer (pH 7.4, 75 mM) was used to dissolve peptides (100 and 200 µM) and Trolox standards (6.25–100 µM). Data analysis was done with Gen5^TM software (Fisher Scientific, Nepean, ON, Canada), and ORAC values were expressed as µM Trolox Equivalent (TE)/µM peptide using the standard curve.

HepG2 cells = format: cell-based, Human; conditions: then 20 mM AAPH 24 h, MTT; for Increase of viability of cells compared to PC: 100 µM peptide 24 h, p < 0.05; for Cytoprotective effect against AAPH-induced damage: 50 or 100 µM peptide 24 h
Procedure: Human hepatocellular carcinoma (HepG2) cells were purchased from the American Type Culture Collection (ATCC; Manassas, VA, USA). They were cultured at 37 °C in a humidified incubator with 5% CO2 and 95% air. Dulbecco’s Minimal Essential Media (DMEM) supplemented with 10% (v/v) Fetal Bovine Serum was used for the maintenance of cells. […] The MTT (3-(4,5-dimethylthiazol-2-yl)-2,5-diphenyltetrazolium bromide) assay, as described in an earlier research, was used for cytotoxicity and cytoprotective tests. […] Following another 24 h incubation, cells were washed twice with 200 µL of PBS. Ten µL of MTT solution (5 mg/mL in PBS) and 100 µL of media were added to each well. After 1 h, MTT solution was removed, and 50 µL DMSO were added. Absorbances were recorded at 570 nm with 630 nm background subtraction using a BioTek Epoch™ microplate reader (Fisher Scientific, Nepean, ON, Canada). Untreated cells were used as negative control (NC) and cells treated with only AAPH were used as positive control (PC).

[5] = test system: superoxide dismutase (SOD); assay: Superoxide dismutase activity of lysates of AAPH-stressed cells; format: cell-based, Human; conditions: 50 µM peptide 24 h, then AAPH 24 h
Procedure: as §1, with “assay.” for “assay. To measure the catalase activity, 1790 µL potassium phosphate buffer (50 mM, pH 7.0) was mixed with 200 µL cell lysate in a UV cuvette. Ten µL of H2O2 (30%) was added, and removal of H2O2 by catalase was followed at 240 nm using a Cary 50 Bio UV-Vis spectrophotometer with 18-cell changer (Varian Inc., Mississauga, ON, Canada). The activity was expressed as a percentage of control.”
The SOD activity was measured based on the rate of reduction of nitroblue tetrazolium (2.24 mM) to formazan by xanthine oxidase (13.2 U/mL) at 560 nm. Eight concentrations of each cell extract ([…] protein/mL) or SOD standard (2–500 ng/mL) were used to obtain inhibition curves. Specifically, 20 µL of cell sample, or buffer (blank) was mixed with 160 µL of assay solution, and 20 µL of xanthine oxidase was added to initiate the reaction. The reduction of nitroblue tetrazolium to blue formazan by O2^−• generated in situ was followed at 560 nm. SOD activities were calculated and expressed as units per milligram of protein.

RAW 264.7 cells = conditions: peptides from fish; cited from earlier work
Excerpt: The physiological role of GSH has long been of interest, particularly its antioxidant function due to the unique redox chemistry of its cysteinyl thiol residue. The oxidation of sulfhydryl groups on amino acids by ROS can lead to the formation of protein disulfide bonds, which can be reduced by GSH into individual sulfhydryl groups. GSH is also a substrate used by GPx in the reduction of peroxides and its concentration often reflects oxidative status of cells.

[6] = peptide from beta-lactoglobulin
[7] = 50 µM peptide 24 h, then AAPH 24 h

For “YAEERYPIL [literature peptide from egg white]”, the ORAC activity ([1]; peptide from egg white) is listed as 3.5 µM TE/µM.
For “MHIRL [literature peptide from beta-lactoglobulin]”, the ORAC activity [1, 6] is given as 0.306 µM TE/µM.
In the case of CC(C)(N=NC(C)(C)C(=N)N)C(=N)N.Cl.Cl [AAPH, 2,2′-azobis(2-methylpropionamidine) dihydrochloride, reference compound], the “Increase of CAT activity” value (catalase (CAT); treatment with AAPH alone, 24 h) is reported as ~2 fold, the “Decrease of GPx activity relative to NC” value ([2]; HepG2 cells incubated with AAPH alone, 24 h) is reported as 18.2% and the “Decrease of GSH” value [3] is reported as 58.1%.
For “FNDRLRQGQLL [P1, oat protein derived peptide …, synthesized by GenScript]”, the “Effect on CAT activity compared to PC cells” value (catalase (CAT); [7]) was “no change was observed”, the “Effect on CAT activity” value (catalase (CAT); 100 µM peptide 24 h, then AAPH 24 h) was “not affected by the peptide concentration” and the “Effect on GPx activity of AAPH-stressed cells” value (“Effect on GPx activity” below) ([2]; 50 µM peptide 24 h) was “completely restored the activity”. For the same compound, the “ORAC value (peroxyl radical scavenging activity)” value (“ORAC value” below) [4] was 0.14–0.61 µM TE/µM, the “Increase of viability of cells compared to PC” value (HepG2 cells) was 15.5% and the “Cytoprotective effect against AAPH-induced damage” value (from here on “Cytoprotective effect”) (HepG2 cells) was “cytoprotective”. For the same compound, the “Effect on SOD activity compared to AAPH treated cells only (PC)” value [5] was “did not affect the activity”.
For CAAP [literature peptide from fish], the “Increase of ROS due to AAPH” value (RAW 264.7 cells) is listed as “attenuated”.
With “GQTVFNDRLRQGQLL [P4, oat protein derived peptide …, synthesized by GenScript]” the “ORAC value” value [4] was 0.14–0.61 µM TE/µM and the “Cytoprotective effect” value (HepG2 cells) was “no effect on oxidative damages”.
For “WYSLAMAASDI [literature peptide from beta-lactoglobulin]”, the ORAC activity [1, 6] is listed as 2.6 µM/µM.
With “DVNNNANQLEPR [P7, oat protein derived peptide …, synthesized by GenScript]” the “Further increase of CAT activity compared to PC cells” value (catalase (CAT); [7]) was 90%, the “Effect on GPx activity” value ([2]; 50 µM peptide 24 h) was “had no effect” and the “Effect on GPx activity” value ([2]; 100 µM peptide 24 h) was “only suppressed the damage caused by AAPH”. The “ORAC value” value [4] was 0.14–0.61 µM TE/µM and 0.14 ± 0.04 µM TE/µM, the “Increase of viability of cells compared to PC” value (HepG2 cells) was 8.3% and the “Cytoprotective effect” value (HepG2 cells) was “cytoprotective”. For the same compound, the “Effect on SOD activity compared to AAPH treated cells only (PC)” value [5] was “did not affect the activity”.
For VCSV [literature peptide from fish], the “Increase of ROS due to AAPH” value (RAW 264.7 cells) is given as “attenuated”.
In the case of “GQTV [P3, oat protein derived peptide GQTV, synthesized by GenScript]”, the “Cytoprotective effect” value (HepG2 cells) is reported as “no effect on oxidative damages”.
